From patent US11723957B2, “Compositions comprising relaxin and methods of use thereof” (Beth Israel Deaconess Medical Center, Inc., priority 2016, dated 2023)
Values joined by “and” are separate entries in the source; they are usually repeats but may differ in a detail not shown here. Identical values can stand only once. “Also recorded” adds a separate entry of the source. No end group written: not given here.

Experiments:
[1] = system: relaxin antibody; assay: Antibody-based ELISA of PEGylated relaxin; type: binding; details: Quantikine ELISA, six dilutions
[2] = system: rat shoulder contracture model (glenohumeral joint); assay: ROM measurement in rat shoulder contracture model (Example 2); type: in vivo, Sprague Dawley rats; details: for Final ROM, Total ROM: 8 weeks follow-up; for Difference ROM (% Δ°), External ROM / Difference ROM (% Δ°), Internal ROM / Difference ROM (% Δ°), Total ROM: final versus baseline
Protocol: On the approval of the Institutional Animal Care and Use Committee (IACUC) at Beth Israel Deaconess Medical Center, 20 Female Sprague Dawley rats (250-300 g, Charles River Laboratories, Inc., Wilmington, Mass., USA) were chosen for this study. Baseline ROM measurements were taken for both forelimbs of each rat prior to any surgical intervention. Torque measurements were recorded at […] (τINT) and 60° of external rotation (τOUT), totaling a full 160° range of motion (ROM) (FIG. 4, Panels B and C). These measurements were required as they indicate a baseline for normal torque necessary to achieve both rotations. The specific rotation angles were chosen under fluoroscopic guidance to ensure minimal scapular recruitment, while simultaneously allowing for maximum humeral rotation within the joint space. Each ROM measurement was repeated three times to ensure consistency. All measurements were also performed under anesthesia to prevent any active muscle activation from interfering with the passive capsular resistance. Induction of the rats was performed at 5% isoflurane inhalation, and maintenance was managed at a 2% isoflurane dose.
After the baseline measurements and under anesthesia, 20 rats were subjected to the immobilization procedure as outlined in Example 1 and in Villa-Camacho et al., Journal of Shoulder and Elbow Surgery, 2015, 24(11):1809-16, to induce fibrosis. In short, an incision was created longitudinally on the left limb, perpendicular to the scapular spine, to expose both the scapula and humerus. A No. 2-0 Ethibond polyester suture (Ethicon, San Lorenzo, PR, USA) was used to immobilize the humerus to the scapula by passing two loops through the medial border of the scapula and against the humeral shaft (FIG. 4, Panel A). Care was taken to ensure that the sutures avoided critical vasculature, musculature, and nerves. Each rat was maintained under fixation for 8 weeks. After the eighth week, the suture fixations were removed, and the rats were randomly placed in four groups: (1) intra-articular relaxin, single dose (IAS) (n=5); (2) intra-articular relaxin, multiple doses (IAM) (n=5); (3) intravenous relaxin, multiple doses (IVM) (n=5); and (4) untreated surgical controls (n=5). The sample size was determined with a power of 0.80 and α=0.05 if a 10% increase in range of motion from contracture was to be expected.
The mechanical testing apparatus was assembled with four core components and controlled with a computer through custom-built software written on MATLAB 7.13.0.564 (The MathWorks, Inc., Natick, Mass., USA). Movement of the forelimb was mediated by a stepper motor controlled by a microcontroller (UNO R3; Arduino, Torino, Italy). The motor was then positioned axially with the reaction torque sensor (TFF400; FUTEK Advanced Sensor Technology, Inc., Irvine, Calif., USA), which measured torque and was utilized as an input feedback for the system. Along the same axis, the arm clamp and the 3-axis inclinometer (3DM-GX3-15; MicroStrain, Inc., Williston, Vt., USA) were attached on the sensing side of the torque sensor. The inclinometer also provided both positional feedback as well as angular measurements for the system. The entire assembly was positioned above the rat with the sensing plane parallel to the ground to ensure that gravity had little impact on the torque measurements (FIG. 4). The apparatus was programmed to move to a specified torque or angle for internal and external rotation for each rat. Plastic zip ties were used to secure the rat forelimb in the apparatus. Care was taken to prevent any injury, and the apparatus was programmed with an internal and external limit switch in the case the apparatus operated abnormally.
Immediately after removal of the restraining sutures, relaxin was administered to the noncontrol group rats. […]

[3] = system: glenohumeral joint capsule and articular cartilage; type: in vivo, Sprague Dawley rats
Description: At the conclusion of the follow-up period, the rats were euthanized according to IACUC guidelines. The rats were weighed and then subjected to CO2 exposure for euthanasia, and further confirmed through a bilateral thoracotomy. The shoulders were bilaterally harvested by disarticulating the humerus from the ulna, and removing the scapula from the clavicle and thoracic cavity. Excess muscle tissue not immediately surrounding the glenohumeral joint capsule was removed. The excised shoulders were decalcified for two months in a solution of ethylenediaminetetraacetic acid (EDTA), which was changed every two to three days. Once decalcified, the shoulders were affixed in a solution of 10% formalin and then mounted in paraffin stacks for histological sectioning at the Beth Israel Deaconess Medical Center (BIDMC) Histology Core. These stacks were mounted so that coronal slicing could be obtained. The slices were stained with hematoxylin and eosin (H&E) and examined for any morphological changes. These slices were taken from a posterior region of humeral head to better find evidence of periarticular adhesions (Brue et al., Knee Surg. Sports Traumatol. Arthrosc., 2007, 15(8):1048-54; White et al., Radiographics, 2016, 36(3):824-39). Further slices, taken mid-coronally, were also stained with fibronectin antibodies paired with peroxidase to further examine fibrotic characteristics such as capsular thickening. Collagen III, α-smooth muscle actin, and other acute fibrotic markers were not chosen for analysis, since histologic sectioning would occur 4 months after contracture creation. The specimen chosen to undergo histological analysis were the surgical control group and the IAM group. The IAM group was chosen because this group received the highest and most frequent dose of relaxin, and was, therefore, the best candidate to showcase any morphologic changes due to relaxin administration. The contralateral shoulders from the surgical control group were used to model a healthy control shoulder for histologic comparisons.

[4] = system: NIH 373 murine fibroblasts; assay: cAMP levels in fibroblasts exposed to relaxin; type: cell-based; details: cultured NIH 373 murine fibroblasts exposed to relaxin
Protocol: The activity of recombinant relaxin (RLN2) was validated by measuring upregulation in the production of cAMP, a secondary metabolite of the relaxin signaling pathway. Increases in cAMP lead to increased MMP expression and decreased collagen and TIMP expression. To validate the activity of RLN2, cultured NIH 373 murine fibroblasts were exposed to relaxin, and the resulting cAMP levels were measured.

[5] = in vivo; cited from earlier work
[6] = IAM: intra-articular, multiple doses, final measurement
[7] = IAS: intra-articular, single dose, final measurement
[8] = IVM: intravenous, multiple doses, final measurement

PEGylated relaxin: relaxin reacted with mPEG-SVA (2000 MW); product conjugated with two PEG chains (chain 1 QLYSALANKCCHVGCTKRSLARFC; chain 2 DSWMEEVIKLCGRELVRAQIAICGMSTWS; not fully specified (bridges); ends and bridges not checked)
Recognition by the relaxin antibody [1]: recognized by the relaxin antibody

relaxin
Treatment of shoulder contracture, overall result ([2]; 5 intra-articular doses of 0.0005 mg over 10 days (total 0.0025 mg)): effective in treating shoulder contracture; also recorded: full recovery with increased ROM for 60 days | ROM of healthy contralateral forelimbs / systemic joint laxity ([2]; IAM, IAS and IVM groups): no significant change from baseline; also recorded: no systemic joint laxity was present | Final ROM, Total ROM ([2]; IAM: intra-articular, multiple doses (5 x 0.0005 mg every 2 days), final measurement): 159.13 ± 6.97 ° | Final ROM, External ROM [2, 6]: 60.27 ± 11.05 ° | Final ROM, Internal ROM [2, 6]: 98.87 ± 10.63 ° | Total ROM compared with surgical control group (statistics) ([2]; IAM, final measurement, P<0.01): significantly improved when compared with the control group | Total ROM compared with baseline measurements (statistics) ([2]; IAM, final measurement, P=0.94): not statistically different from the baseline measurements | Difference ROM (% Δ°), External ROM ([2]; IAM): 1.01% | Difference ROM (% Δ°), Internal ROM ([2]; IAM): −0.27% | Difference ROM (% Δ°), Total ROM ([2]; IAM): 0.21% | Final ROM, Total ROM ([2]; IAS: intra-articular, single dose 0.0005 mg, final measurement): 138.40 ± 15.34 ° | Final ROM, External ROM [2, 7]: 63.13 ± 14.20 ° | Final ROM, Internal ROM [2, 7]: 75.27 ± 15.62 ° | Increase in total ROM compared with surgical control (statistics) ([2]; IAS, final measurement): not found to be significant | Restriction of total ROM compared with baseline ([2]; IAS, final measurement): −21.72 ° | Difference ROM (% Δ°), External ROM ([2]; IAS): 5.22% | Difference ROM (% Δ°), Internal ROM ([2]; IAS): −24.83% | Difference ROM (% Δ°), Total ROM ([2]; IAS): −13.57% | Improvement in ROM over the surgical control group ([2]; IAS, measurement immediately following day 0, P=0.025): 11.87 ° | Final ROM, Total ROM ([2]; IVM: intravenous, multiple doses (5 x 0.17 mg every 2 days), final measurement): 127.93 ± 16.35 ° | Final ROM, External ROM [2, 8]: 54.67 ± 15.30 ° | Final ROM, Internal ROM [2, 8]: 73.27 ± 10.35 ° | Restriction of total ROM compared with baseline ([2]; IVM, final measurement): −30.73 ° | Difference ROM (% Δ°), External ROM ([2]; IVM): −7.87% | Difference ROM (% Δ°), Internal ROM ([2]; IVM): −26.24% | Difference ROM (% Δ°), Total ROM ([2]; IVM): −19.42% and −19.37% | Treatment of shoulder contracture, overall result ([2]; single intra-articular injection of 0.0005 mg): ineffective | Capsular adhesions, H&E stained sections ([3]; IAM group, end of follow-up): lacked any apparent adhesions | Capsular tissue thickness, fibronectin stain ([3]; IAM group, end of follow-up): return to normal thickness in capsular tissue | Peroxidase intensity (fibronectin stain) in and around capsular tissue ([3]; IAM group, end of follow-up): reduction in peroxidase intensity | Articular cartilage quality, OARSI grading system ([3]; rat, in vivo): between a grade 1 and grade 2 level of osteoarthritis | Fibrillation of the articular surface, H&E ([3]; rat, in vivo): both superficial and deep fibrillation within the articular surface | cAMP levels [4]: dose-dependent upregulation of cAMP levels | Half-life [5]: about 2.5 hours
